In one assay the test system is Klebsiella pneumoniae. Nature of the assay: Antibacterial activity Klebsiella pneumoniae MTCC 618 by agar well method. It is filed as functional.
Another assay relates to Bacillus subtilis. Nature of the assay: Antibacterial activity Bacillus subtilis MTCC 441 by agar well method. Format: functional.
The next assay deals with Staphylococcus aureus. Nature of the assay: Antibacterial activity Staphylococcus aureus MTCC 96 by agar well method. It is filed as functional.
The subject of assay [1] is Staphylococcus epidermidis. Nature of the assay: Antibacterial activity Staphylococcus epidermidis MTCC 9041 by agar well method. Format: functional.
In another assay the test system is Escherichia coli. Nature of the assay: Antibacterial activity Escherichia coli MTCC 443 by agar well method. Format: functional.
The next assay deals with Pseudomonas aeruginosa. Nature of the assay: Antibacterial activity Pseudomonas aeruginosa MTCC 1688 by agar well method. Format: functional.
Another assay deals with SK-OV-3. Nature of the assay: Cytotoxicity against human SKOV3 cells incubated for 24 hrs by MTT asasy. Format: functional, cell-based. The conditions noted are these: sk-ov-3.
For a further assay, the system named is HeLa. Nature of the assay: Cytotoxicity against human HeLa cells incubated for 24 hrs by MTT asasy. Format: functional, cell-based. The settings on record: Homo sapiens, HeLa, 24 h; read-out: IC50.
Another assay deals with MDA-MB-231. Nature of the assay: Cytotoxicity against human MDA-MB-231 cells incubated for 24 hrs by MTT asasy. It is filed as functional, cell-based. The conditions noted are these: Homo sapiens, MDA-MB-231, 24 h; read-out: IC50.
In the next assay the test system is DU-145. Nature of the assay: Cytotoxicity against human DU145 cells incubated for 24 hrs by MTT asasy. Format: functional, cell-based.
Another assay concerns CHO-K1. Nature of the assay: Cytotoxicity against CHOK1 cells incubated for 24 hrs by MTT asasy. It is filed as cell-based, Cricetulus griseus.
Where [2] appears, read: Homo sapiens, DU-145, 24 h, read-out: IC50.
Where [3] appears, read: Cricetulus griseus, CHO-K1, 24 h, read-out: IC50.

Each structure is given as a SMILES string. Calls of active or inactive are those of the source. The rule behind the calls is not given here. Where only a bound is given, the exact number is not on record here.

A word on the MIC: it is the lowest concentration found to suppress growth. The term IC50 denotes the concentration needed to halve the response being measured.

In the case of `CCCCCCCC/C=C\CCCCCCCC(=O)Nc1nnc(S[C@@H]2O[C@H](CO)[C@H](O)[C@H](O)[C@H]2O)s1`, the minimum inhibitory concentration (MIC) (with Klebsiella pneumoniae; against Bacillus subtilis; against Staphylococcus aureus; in assay [1]; against Escherichia coli; against Pseudomonas aeruginosa) was above 150 mg/L each time. Also, the IC50 result in the assay on SK-OV-3 was “Not Active”; in the assay with HeLa, 8.8 µM; in the assay on MDA-MB-231, 43.6 µM; in the assay with DU-145 (du-145), “Not Active”; with CHO-K1 (cho-k1), “Not Active”.

Regarding `CCCCCCCCCCCCCCCCCC(=O)Nc1nnc(S[C@@H]2O[C@H](COC(C)=O)[C@H](OC(C)=O)[C@H](OC(C)=O)[C@H]2OC(C)=O)s1`, the MIC result (in the assay on Klebsiella pneumoniae; in the assay with Bacillus subtilis; in the assay on Staphylococcus aureus; in assay [1]; with Escherichia coli; in the assay on Pseudomonas aeruginosa) was “inactive” each time. In addition, the 50% inhibitory concentration (IC50) result is “Not Active” in the assay with SK-OV-3; 97.5 µM in the assay on HeLa; 23.6 µM with MDA-MB-231; 31.2 µM with DU-145 (setting [2]); 44.7 µM in the assay with CHO-K1 (setting [3]).

On to `CCCCCCCCCCCCCCCC(=O)Nc1nnc(S[C@@H]2O[C@H](COC(C)=O)[C@H](OC(C)=O)[C@H](OC(C)=O)[C@H]2OC(C)=O)s1`, for which the MIC result (in the assay on Klebsiella pneumoniae; in the assay with Bacillus subtilis; with Staphylococcus aureus; in assay [1]; with Escherichia coli; in the assay on Pseudomonas aeruginosa) was “inactive” throughout. In addition, the IC50 entry is “Not Active” with SK-OV-3; 58.3 µM in the assay with HeLa; 25.4 µM in the assay with MDA-MB-231; 30.1 µM in the assay on DU-145 (setting [2]); 90.4 µM in the assay on CHO-K1 (setting [3]).

`CCCCCCCC(=O)Nc1nnc(S[C@@H]2O[C@H](COC(C)=O)[C@H](OC(C)=O)[C@H](OC(C)=O)[C@H]2OC(C)=O)s1`: the MIC result (in the assay on Klebsiella pneumoniae; in the assay on Bacillus subtilis; with Staphylococcus aureus; in assay [1]; in the assay with Escherichia coli; in the assay with Pseudomonas aeruginosa) was “inactive” each time. Besides, the 50% inhibitory concentration (IC50) entry in the assay on SK-OV-3 is “Not Active”; with HeLa it was 43.6 µM; in the assay with MDA-MB-231, 18.9 µM; in the assay with DU-145 (du-145) it was “Not Active”; in the assay with CHO-K1 (setting [3]) it was 19.2 µM.

Regarding `CCCCCCCC/C=C\CCCCCCCC(=O)Nc1nnc(S[C@@H]2O[C@H](COC(C)=O)[C@H](OC(C)=O)[C@H](OC(C)=O)[C@H]2OC(C)=O)s1`, the MIC result (in the assay with Klebsiella pneumoniae; with Bacillus subtilis; in the assay with Staphylococcus aureus; in assay [1]; in the assay on Escherichia coli; in the assay with Pseudomonas aeruginosa) was “inactive” in each case. Moreover, the IC50 result with SK-OV-3 is “Not Active”; with HeLa, 54.4 µM; in the assay with MDA-MB-231 it was 23.6 µM; in the assay on DU-145 (setting [2]), 42 µM; in the assay on CHO-K1 (setting [3]), 26.3 µM.

On to `CCCCCCCCCC(=O)Nc1nnc(S[C@@H]2O[C@H](CO)[C@H](O)[C@H](O)[C@H]2O)s1`, for which the MIC (with Klebsiella pneumoniae; against Bacillus subtilis; against Staphylococcus aureus; in [1]; in the assay with Escherichia coli; against Pseudomonas aeruginosa) was above 150 mg/L in each case. Further, the IC50 result in the assay on SK-OV-3 is “Not Active”; in the assay with HeLa, 25.9 µM; in the assay on MDA-MB-231 it was 53.1 µM; in the assay with DU-145 (du-145), “Not Active”; in the assay on CHO-K1 (cho-k1), “Not Active”.

Source of the values: ChEMBL document CHEMBL4033749, “Synthesis and biological evaluation of 5-fatty-acylamido-1, 3, 4-thiadiazole-2-thioglycosides” (Bioorg Med Chem Lett, 2017).
